Source: ChEMBL document CHEMBL1201862, “PubChem BioAssay data set” (2004)
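Where inhibition never reached the appropriate level, the endpoint shown equals the highest concentration tested. Otherwise, values were interpolated linearly from a five-concentration, 48-hour dose response in 96-well plates. The concentration for 50% growth inhibition is given as GI50.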 Active and inactive are the calls of the source. No stated cut-off is given here; in the data, active = GI50 up to about 1.1 µM and inactive = higher.

Assays:
Assay in all cases: inhibition of tumour cell growth, NCI panel, 48 h
ACHN = system: ACHN
COLO 205 = system: COLO 205
DU-145 = system: DU-145
HCC 2998 = system: HCC 2998
HOP-62 = system: HOP-62
HT-29 = system: HT-29
Hs-578T = system: Hs-578T
KM12 = system: KM12
M14 = system: M14
MCF7 = system: MCF7
MDA-MB-231 = system: MDA-MB-231
MDA-N = system: MDA-N
Malme-3M = system: Malme-3M
NCI-H226 = system: NCI-H226
NCI-H522 = system: NCI-H522
NCI/ADR-RES = system: NCI/ADR-RES
OVCAR-5 = system: OVCAR-5
SF-539 = system: SF-539
SN12C = system: SN12C
A498 = system: A498

Measured: GI50

CCOC(=O)C(NCc1ccccc1)(NC(=O)c1ccccc1)C(F)(F)F (stereo not given)
inactive: ACHN > 100 µM | COLO 205 > 100 µM | DU-145 > 100 µM | HCC 2998 > 100 µM | HOP-62 > 100 µM | HT-29 > 100 µM | Hs-578T > 100 µM | KM12 81.5 µM | M14 > 100 µM | MCF7 > 100 µM | MDA-MB-231 21.4 µM | MDA-N > 100 µM | Malme-3M > 100 µM | NCI-H226 > 100 µM | NCI-H522 35.6 µM | NCI/ADR-RES 43.3 µM | OVCAR-5 > 100 µM | SF-539 > 100 µM | SN12C > 100 µM

C#CC(O)/C=C/C(O)CCCC(O)CC#CC(O)C#CCCCCC(O)/C=C/CCCC(=O)CCCCCCCCCCCCCCCC(O)C(O)C#CC(=O)O (stereo not given)
inactive: ACHN > 25 µM | COLO 205 > 25 µM | DU-145 > 25 µM | HCC 2998 > 25 µM | HOP-62 > 25 µM | HT-29 > 25 µM | Hs-578T > 25 µM | KM12 > 25 µM | M14 > 25 µM | MCF7 > 25 µM | MDA-MB-231 > 25 µM | MDA-N > 25 µM | Malme-3M > 25 µM | NCI-H226 > 25 µM | NCI-H522 6.28 µM | NCI/ADR-RES > 25 µM | OVCAR-5 > 25 µM | SN12C > 25 µM

COc1ccccc1[S+]([O-])Nc1ccccc1 (stereo not given)
inactive: ACHN 87.7 µM | COLO 205 > 100 µM | DU-145 > 100 µM | HCC 2998 83.2 µM | HOP-62 > 100 µM | HT-29 50.9 µM | Hs-578T 76 µM | KM12 12.5 µM | MCF7 > 100 µM | MDA-MB-231 > 100 µM | MDA-N > 100 µM | Malme-3M > 100 µM | NCI-H226 > 100 µM | NCI-H522 38.2 µM | NCI/ADR-RES 91.4 µM | OVCAR-5 > 100 µM | SF-539 25.3 µM | SN12C > 100 µM

O=C(C[C@@H]1CCCN2CCCC[C@H]12)N1c2ccccc2Sc2ccc(Cl)cc21
inactive: ACHN 14.2 µM | COLO 205 11.9 µM | DU-145 14 µM | HOP-62 13 µM | HT-29 10.6 µM | Hs-578T 17.1 µM | KM12 13.3 µM | M14 4.95 µM | MCF7 18.2 µM | MDA-MB-231 14.7 µM | MDA-N 16 µM | Malme-3M 16.2 µM | NCI-H226 27.6 µM | NCI-H522 13.5 µM | NCI/ADR-RES 14.8 µM | OVCAR-5 13.4 µM | SF-539 16.6 µM | SN12C 16.7 µM

CC1(C)CC(=O)C(=CNC(N)=S)C(=O)C1
inactive: ACHN > 100 µM | COLO 205 > 100 µM | DU-145 > 100 µM | HCC 2998 > 100 µM | HOP-62 > 100 µM | HT-29 > 100 µM | Hs-578T > 100 µM | KM12 > 100 µM | M14 > 100 µM | MCF7 > 100 µM | MDA-MB-231 > 100 µM | MDA-N > 100 µM | NCI-H226 > 100 µM | NCI-H522 > 100 µM | NCI/ADR-RES > 100 µM | OVCAR-5 > 100 µM | SF-539 > 100 µM | SN12C > 100 µM

CCOC(=O)c1c(N2CCCC2)nsc1Nc1ccc(F)cc1
inactive: A498 40 µM | ACHN 31.2 µM | COLO 205 48.5 µM | DU-145 45.3 µM | HCC 2998 31.4 µM | HOP-62 63.5 µM | HT-29 23.6 µM | Hs-578T 40.9 µM | KM12 42.2 µM | M14 48.8 µM | MDA-MB-231 39.4 µM | MDA-N 34.9 µM | Malme-3M 21.9 µM | NCI-H226 60.4 µM | NCI-H522 33.5 µM | NCI/ADR-RES 34 µM | OVCAR-5 25.4 µM | SF-539 64.7 µM | SN12C 36.3 µM

C[C@]12c3c4cc(NC(=O)C(=O)NCc5ccc(-c6ccccn6)nc5)cc3Oc3cc(NC(=O)C(=O)NCc5ccc(-c6ccccn6)nc5)cc(c31)OC1C=C(NC(=O)C(=O)NCc3ccc(-c5ccccn5)nc3)C=C(O4)C12 (stereo not given in full)
inactive: ACHN 14.3 µM | COLO 205 23.1 µM | DU-145 18.8 µM | HOP-62 > 100 µM | HT-29 12.1 µM | Hs-578T > 100 µM | KM12 16.3 µM | M14 98.2 µM | MCF7 33.7 µM | MDA-MB-231 9.59 µM | MDA-N 34 µM | NCI-H226 29.6 µM | NCI-H522 66.5 µM | NCI/ADR-RES 49.7 µM | OVCAR-5 > 100 µM | SF-539 29.3 µM | SN12C 40.9 µM

O=C(O)c1ccc(Nc2nc3ccccc3nc2C(=O)O)cc1
inactive: ACHN > 100 µM | COLO 205 > 100 µM | DU-145 > 100 µM | HCC 2998 > 100 µM | HOP-62 > 100 µM | HT-29 > 100 µM | Hs-578T > 100 µM | KM12 > 100 µM | M14 > 100 µM | MCF7 > 100 µM | MDA-MB-231 > 100 µM | MDA-N > 100 µM | Malme-3M > 100 µM | NCI-H522 > 100 µM | NCI/ADR-RES > 100 µM | OVCAR-5 > 100 µM | SF-539 > 100 µM | SN12C > 100 µM

[O-][s+]1c2c(Cc3ccccc3)c(Cc3ccccc3)c1CCc1cccc(c1)CC2
inactive: ACHN 16.7 µM | COLO 205 17.5 µM | DU-145 15.8 µM | HCC 2998 14.1 µM | HT-29 11.9 µM | Hs-578T 18.2 µM | KM12 12.2 µM | M14 14.7 µM | MCF7 11.1 µM | MDA-MB-231 15.9 µM | MDA-N 14.1 µM | Malme-3M 17.1 µM | NCI-H226 19.1 µM | NCI-H522 11.3 µM | NCI/ADR-RES 14.4 µM | OVCAR-5 15.3 µM | SF-539 18.7 µM | SN12C 16.2 µM

Cc1ccc(S(=O)(=O)Oc2ccc(OS(=O)(=O)c3ccc(C)cc3)c3c2C(=O)c2ccccc2C3=O)cc1
inactive: ACHN > 100 µM | COLO 205 > 100 µM | DU-145 > 100 µM | HCC 2998 > 100 µM | HOP-62 37.8 µM | HT-29 > 100 µM | Hs-578T 38.7 µM | KM12 > 100 µM | M14 > 100 µM | MCF7 > 100 µM | MDA-MB-231 66.7 µM | MDA-N > 100 µM | Malme-3M > 100 µM | NCI-H226 > 100 µM | NCI-H522 > 100 µM | NCI/ADR-RES > 100 µM | OVCAR-5 > 100 µM | SF-539 33 µM | SN12C > 100 µM

CC(=O)CCn1c(=S)sc2ccccc21
inactive: ACHN > 100 µM | COLO 205 > 100 µM | DU-145 > 100 µM | HCC 2998 > 100 µM | HOP-62 > 100 µM | HT-29 > 100 µM | Hs-578T > 100 µM | KM12 > 100 µM | M14 > 100 µM | MCF7 > 100 µM | MDA-MB-231 > 100 µM | MDA-N > 100 µM | NCI-H226 > 100 µM | NCI-H522 19.4 µM | NCI/ADR-RES > 100 µM | OVCAR-5 > 100 µM | SF-539 > 100 µM | SN12C > 100 µM
